Patent US20260285850A1, “SUBSTITUTED OXAZOLIDINONES AND IMIDAZOLINONES AS HERBICIDES” (FMC CORPORATION, priority 2023, published 2026)

How the values were obtained:
Assay type in all cases: in vivo
[1] = tested on: kochia (Bassia scoparia); assay: Test A preemergence soil spray, visual injury rating 0-100; details: 10 days
Summary of the method: (§1)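 Plants were grown in a loam soil-sand blend and treated with test chemical in a non-phytotoxic solvent mixture containing surfactant, either sprayed on soil preemergence or applied postemergence to 2-10 cm plants. After 10 days in a greenhouse, injury was scored visually against untreated controls, 0 meaning no effect and 100 complete control.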

[2] = tested on: soybean (Glycine max); assay: as above; details: 10 days
Summary of the method: as §1

[3] = tested on: ragweed (common ragweed, Ambrosia artemisiifolia); assay: as above; details: 10 days
Summary of the method: as §1

[4] = tested on: corn (Zea mays); assay: as above; details: 10 days
Summary of the method: as §1

[5] = tested on: ryegrass, Italian (italian ryegrass, Lolium multiflorum); assay: as above; details: 10 days
Summary of the method: as §1

[6] = tested on: blackgrass (Alopecurus myosuroides); assay: as above; details: 10 days
Summary of the method: as §1

[7] = tested on: barnyardgrass (Echinochloa crus-galli); assay: as above; details: 10 days
Summary of the method: as §1

[8] = tested on: oat, wild (wild oat, Avena fatua); assay: as above; details: 10 days
Summary of the method: as §1

[9] = tested on: green foxtail (Setaria viridis); assay: as above; details: 10 days
Summary of the method: as §1

[10] = tested on: wheat (Triticum aestivum); assay: as above; details: 10 days
Summary of the method: as §1

[11] = tested on: ducksalad (Heteranthera limosa); assay: Test B flooded paddy test, visual plant response rating 0-100; details: 250 g ai/ha, Flood, applied to paddy water, evaluated after 13 days
Summary of the method: (§2)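 In this flooded assay, 2-leaf seedlings received compound through the water layer, kept at 3 cm over the soil. Plants were held 13 days in a greenhouse and then visually compared with control pots.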

[12] = tested on: barnyardgrass (Echinochloa crusgalli); assay: as above; details: 250 g ai/ha, Flood, applied to paddy water, evaluated after 13 days
Summary of the method: as §2

[13] = tested on: sedge, umbrella (small-flower umbrella sedge, Cyperus difformis); assay: as above; details: 250 g ai/ha, Flood, applied to paddy water, evaluated after 13 days
Summary of the method: as §2

[14] = tested on: rice (Oryza sativa); assay: as above; details: 250 g ai/ha, Flood, applied to paddy water, evaluated after 13 days
Summary of the method: as §2

[15] = tested on: kochia (Bassia scoparia); assay: Test A postemergence application, visual injury rating 0-100
Summary of the method: as §1

[16] = tested on: galium (catchweed bedstraw, Galium aparine); assay: as above
Summary of the method: as §1

[17] = tested on: soybean (Glycine max); assay: as above
Summary of the method: as §1

[18] = tested on: ragweed (common ragweed, Ambrosia artemisiifolia); assay: as above
Summary of the method: as §1

[19] = tested on: corn (Zea mays); assay: as above
Summary of the method: as §1

[20] = tested on: ryegrass, Italian (italian ryegrass, Lolium multiflorum); assay: as above
Summary of the method: as §1

[21] = tested on: blackgrass (Alopecurus myosuroides); assay: as above
Summary of the method: as §1

[22] = tested on: barnyardgrass (Echinochloa crus-galli); assay: as above
Summary of the method: as §1

[23] = tested on: oat, wild (wild oat, Avena fatua); assay: as above
Summary of the method: as §1

[24] = tested on: horseweed (Erigeron canadensis); assay: as above
Summary of the method: as §1

[25] = tested on: green foxtail (Setaria viridis); assay: as above
Summary of the method: as §1

[26] = tested on: wheat (Triticum aestivum); assay: as above
Summary of the method: as §1

[27] = tested on: palmer (palmer amaranth, palmer pigweed, Amaranthus palmeri); assay: as above
Summary of the method: as §1

[28] = 62 g ai/ha, 0 = no effect, 100 = complete control
[29] = 62 g ai/ha, postemergence, 10 days, 0 = no effect, 100 = complete control
[30] = Postemergence, 16 g ai/ha, greenhouse 10 days, 0 no effect, 100 complete control

With `CCOC(=O)C1=CCC(NC(=O)C2(C)CN(c3cc(F)cc(Cl)c3)C(=O)O2)C1` (centres unmarked) [Compound 134] as the compound, how does the “Kochia plant response rating” value ([1]; 16 g ai/ha, 0 to 100 scale) read?
Its value is 0.

What about the “Kochia plant response rating (0-100)” value [1, 28] of the same compound?
Its value is 0.

And the “Soybean plant response rating” value ([2]; 16 g ai/ha, 0 to 100 scale)?
Its value is 0.

What about the “Soybean plant response rating (0-100)” value [2, 28] of the same compound?
The value was 0.

And the “Ragweed plant response rating” value ([3]; 16 g ai/ha, 0 to 100 scale)?
Its value is 0.

And the “Ragweed plant response rating (0-100)” value [3, 28]?
The value was 0.

And the “Corn plant response rating” value ([4]; 16 g ai/ha, 0 to 100 scale)?
The value was 0.

And the “Corn plant response rating (0-100)” value [4, 28]?
Its value is 0.

What about the “Ryegrass, Italian plant response rating” value ([5]; 16 g ai/ha, 0 to 100 scale) of the same compound?
Its value is 0.

And the “Ryegrass, Italian plant response rating (0-100)” value [5, 28]?
Its value is 0.

And the “Blackgrass plant response rating” value ([6]; 16 g ai/ha, 0 to 100 scale)?
Its value is 0.

And the “Blackgrass plant response rating (0-100)” value [6, 28]?
The value was 30.

And the “Barnyardgrass plant response rating” value ([7]; 16 g ai/ha, 0 to 100 scale)?
The value was 0.

What about the “Barnyardgrass plant response rating (0-100)” value [7, 28] of the same compound?
The value was 0.

What about the “Oat, Wild plant response rating” value ([8]; 16 g ai/ha, 0 to 100 scale) of the same compound?
Its value is 0.

And the “Oat, Wild plant response rating (0-100)” value [8, 28]?
Its value is 0.

And the “Foxtail, Green plant response rating” value ([9]; 16 g ai/ha, 0 to 100 scale)?
Its value is 0.

What about the “Foxtail, Green plant response rating (0-100)” value [9, 28] of the same compound?
The value was 0.

And the “Wheat plant response rating” value ([10]; 16 g ai/ha, 0 to 100 scale)?
Its value is 0.

What about the “Wheat plant response rating (0-100)” value [10, 28] of the same compound?
Its value is 0.

What about the “Plant response rating, Ducksalad (0 to 100 scale, 0 is no effect and 100 is complete control)” value [11] of the same compound?
The value was 0.

What about the “Plant response rating, Barnyardgrass (0 to 100 scale, 0 is no effect and 100 is complete control)” value [12] of the same compound?
Its value is 0.

And the “Plant response rating, Sedge, Umbrella (0 to 100 scale, 0 is no effect and 100 is complete control)” value [13]?
Its value is 0.

What about the “Plant response rating, Rice (0 to 100 scale, 0 is no effect and 100 is complete control)” value [14] of the same compound?
Its value is 0.

What about the “Kochia plant response rating (0-100)” value [15, 29] of the same compound?
The value was 0.

And the “Kochia plant response rating (0 to 100 scale)” value [15, 30]?
The value was 0.

And the “Galium plant response rating (0-100)” value [16, 29]?
Its value is 0.

And the “Galium plant response rating (0 to 100 scale)” value [16, 30]?
The value was 0.

What about the “Soybean plant response rating (0-100)” value [17, 29] of the same compound?
Its value is 0.

What about the “Soybean plant response rating (0 to 100 scale)” value [17, 30] of the same compound?
The value was 0.

And the “Ragweed plant response rating (0-100)” value [18, 29]?
The value was 0.

And the “Ragweed plant response rating (0 to 100 scale)” value [18, 30]?
Its value is 0.

And the “Corn plant response rating (0-100)” value [19, 29]?
The value was 0.

And the “Corn plant response rating (0 to 100 scale)” value [19, 30]?
Its value is 0.

What about the “Ryegrass, Italian plant response rating (0-100)” value [20, 29] of the same compound?
Its value is 0.

What about the “Ryegrass, Italian plant response rating (0 to 100 scale)” value [20, 30] of the same compound?
The value was 0.

What about the “Blackgrass plant response rating (0-100)” value [21, 29] of the same compound?
The value was 0.

What about the “Blackgrass plant response rating (0 to 100 scale)” value [21, 30] of the same compound?
Its value is 0.

What about the “Barnyardgrass plant response rating (0-100)” value [22, 29] of the same compound?
Its value is 0.

And the “Barnyardgrass plant response rating (0 to 100 scale)” value [22, 30]?
The value was 0.

What about the “Oat, Wild plant response rating (0-100)” value [23, 29] of the same compound?
Its value is 0.

What about the “Oat, Wild plant response rating (0 to 100 scale)” value [23, 30] of the same compound?
The value was 0.

What about the “Horseweed plant response rating (0-100)” value [24, 29] of the same compound?
The value was 0.

And the “Horseweed plant response rating (0 to 100 scale)” value [24, 30]?
Its value is 0.

What about the “Foxtail, Green plant response rating (0-100)” value [25, 29] of the same compound?
The value was 0.

And the “Foxtail, Green plant response rating (0 to 100 scale)” value [25, 30]?
The value was 0.

What about the “Wheat plant response rating (0-100)” value [26, 29] of the same compound?
Its value is 0.

And the “Wheat plant response rating (0 to 100 scale)” value [26, 30]?
Its value is 0.

What about the “Pigweed, Palmer plant response rating (0-100)” value [27, 29] of the same compound?
Its value is 0.

What about the “Pigweed, Palmer plant response rating (0 to 100 scale)” value [27, 30] of the same compound?
The value was 0.
